# Tested on: SW 1271 complex spheroids, viability
# Assay: Anticancer human tumor SW 1271 cell line growth inhibition [LSD1];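 further: spheroids exposed to agents for 7 days before luminescence read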;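 on viability, T/C: 100% = DMSO vehicle control viability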
# Details: for IC50: curve of first compound; for viability, T/C: stronger effect = lower value
# Summary of the method: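 Complex spheroids of tumor cells with HUVEC and human MSCs, exposed to iadademstat combined with other agents. Each agent tested in half-log steps from near clinical Cmax (else 10 microM top), DMSO ≤0.25%.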
# [1] = second compound 0.1 µM, first compound 0.0316 µM
# [2] = second compound 0.1 µM, first compound 0.1 µM
# [3] = second compound 0.1 µM, first compound 0.316 µM
# [4] = second compound 0.1 µM, first compound 1 µM
# [5] = second compound 0.1 µM, first compound 3.16 µM
# [6] = second compound 0.1 µM, first compound 10 µM
# [7] = second compound 0.316 µM, first compound 0.0316 µM
# [8] = second compound 0.316 µM, first compound 0.1 µM
# [9] = second compound 0.316 µM, first compound 0.316 µM
# [10] = second compound 0.316 µM, first compound 1 µM
# [11] = second compound 0.316 µM, first compound 3.16 µM
# [12] = second compound 0.316 µM, first compound 10 µM
# [13] = second compound 1 µM, first compound 0.0316 µM
# [14] = second compound 1 µM, first compound 0.1 µM
# [15] = second compound 1 µM, first compound 0.316 µM
# [16] = second compound 1 µM, first compound 1 µM
# [17] = second compound 1 µM, first compound 3.16 µM
# [18] = second compound 1 µM, first compound 10 µM
# [19] = second compound 3.16 µM, first compound 0.0316 µM
# [20] = second compound 3.16 µM, first compound 0.1 µM
# [21] = second compound 3.16 µM, first compound 0.316 µM
# [22] = second compound 3.16 µM, first compound 1 µM
# [23] = second compound 3.16 µM, first compound 3.16 µM
# [24] = second compound 3.16 µM, first compound 10 µM
# [25] = second compound 10 µM, first compound 0.0316 µM
# [26] = second compound 10 µM, first compound 0.1 µM
# [27] = second compound 10 µM, first compound 0.316 µM
# [28] = second compound 10 µM, first compound 1 µM
# [29] = second compound 10 µM, first compound 3.16 µM
# [30] = second compound 10 µM, first compound 10 µM
# [31] = second compound 0.1 µM, first compound 0.00949 µM
# [32] = second compound 0.1 µM, first compound 0.03 µM
# [33] = second compound 0.1 µM, first compound 0.0949 µM
# [34] = second compound 0.1 µM, first compound 0.3 µM
# [35] = second compound 0.316 µM, first compound 0.00949 µM
# [36] = second compound 0.316 µM, first compound 0.03 µM
# [37] = second compound 0.316 µM, first compound 0.0949 µM
# [38] = second compound 0.316 µM, first compound 0.3 µM
# [39] = second compound 1 µM, first compound 0.00949 µM
# [40] = second compound 1 µM, first compound 0.03 µM
# [41] = second compound 1 µM, first compound 0.0949 µM
# [42] = second compound 1 µM, first compound 0.3 µM
# [43] = second compound 3.16 µM, first compound 0.00949 µM
# [44] = second compound 3.16 µM, first compound 0.03 µM
# [45] = second compound 3.16 µM, first compound 0.0949 µM
# [46] = second compound 3.16 µM, first compound 0.3 µM
# [47] = second compound 10 µM, first compound 0.00949 µM
# [48] = second compound 10 µM, first compound 0.03 µM
# [49] = second compound 10 µM, first compound 0.0949 µM
# [50] = second compound 10 µM, first compound 0.3 µM
compound,measurement,setting,value
CC1(C)CCC(CN2CCN(c3ccc(C(=O)NS(=O)(=O)c4ccc(NCC5CCOCC5)c([N+](=O)[O-])c4)c(Oc4cnc5[nH]ccc5c4)c3)CC2)=C(c2ccc(Cl)cc2)C1 + NC1CC1c1ccc(-c2cccc(O)c2)cc1,IC50,second compound 0.1 µM,2.55 µM
same,IC50,second compound 0.316 µM,2.97 µM
same,IC50,second compound 1 µM,2.49 µM
same,IC50,second compound 3.16 µM,1.91 µM
same,IC50,second compound 10 µM,2.1 µM
same,"viability, T/C",[1],80.6%
same,"viability, T/C",[2],84.3%
same,"viability, T/C",[3],91.6%
same,"viability, T/C",[4],78.3%
same,"viability, T/C",[5],43.4%
same,"viability, T/C",[6],1.33%
same,"viability, T/C",[7],85.8%
same,"viability, T/C",[8],95%
same,"viability, T/C",[9],91.8%
same,"viability, T/C",[10],85.5%
same,"viability, T/C",[11],47.9%
same,"viability, T/C",[12],1.12%
same,"viability, T/C",[13],91.3%
same,"viability, T/C",[14],78.7%
same,"viability, T/C",[15],82.4%
same,"viability, T/C",[16],80.8%
same,"viability, T/C",[17],42%
same,"viability, T/C",[18],1.39%
same,"viability, T/C",[19],78.4%
same,"viability, T/C",[20],81.7%
same,"viability, T/C",[21],79%
same,"viability, T/C",[22],66.6%
same,"viability, T/C",[23],36.7%
same,"viability, T/C",[24],1.44%
same,"viability, T/C",[25],73.3%
same,"viability, T/C",[26],65.6%
same,"viability, T/C",[27],64.1%
same,"viability, T/C",[28],69.8%
same,"viability, T/C",[29],40%
same,"viability, T/C",[30],0.32%
CC1COCCN1c1cc(C2(S(C)(=N)=O)CC2)nc(-c2ccnc3[nH]ccc23)n1 (stereo not given) + NC1CC1c1ccc(-c2cccc(O)c2)cc1,IC50,second compound 0.1 µM,1.87 µM
same,IC50,second compound 0.316 µM,2.6 µM
same,IC50,second compound 1 µM,> 10 µM
same,IC50,second compound 3.16 µM,1.36 µM
same,IC50,second compound 10 µM,0.954 µM
same,"viability, T/C",[1],84.8%
same,"viability, T/C",[2],79.5%
same,"viability, T/C",[3],65.5%
same,"viability, T/C",[4],49%
same,"viability, T/C",[5],53.7%
same,"viability, T/C",[6],45.6%
same,"viability, T/C",[7],81.3%
same,"viability, T/C",[8],82.1%
same,"viability, T/C",[9],65%
same,"viability, T/C",[10],57.1%
same,"viability, T/C",[11],46%
same,"viability, T/C",[12],49.4%
same,"viability, T/C",[13],75%
same,"viability, T/C",[14],95.2%
same,"viability, T/C",[15],70.1%
same,"viability, T/C",[16],56.7%
same,"viability, T/C",[17],51.6%
same,"viability, T/C",[18],47.1%
same,"viability, T/C",[19],70.2%
same,"viability, T/C",[20],69.9%
same,"viability, T/C",[21],72.6%
same,"viability, T/C",[22],51.7%
same,"viability, T/C",[23],46.7%
same,"viability, T/C",[24],43.8%
same,"viability, T/C",[25],48.1%
same,"viability, T/C",[26],61.1%
same,"viability, T/C",[27],59.2%
same,"viability, T/C",[28],49.7%
same,"viability, T/C",[29],42%
same,"viability, T/C",[30],46.2%
CCN(c1cc(-c2ccc(CN3CCOCC3)cc2)cc(C(=O)NCc2c(C)cc(C)[nH]c2=O)c1C)C1CCOCC1 + NC1CC1c1ccc(-c2cccc(O)c2)cc1,IC50,second compound 0.1 µM,> 3 µM
same,IC50,second compound 0.316 µM,> 3 µM
same,IC50,second compound 1 µM,> 3 µM
same,IC50,second compound 3.16 µM,> 3 µM
same,IC50,second compound 10 µM,> 3 µM
same,"viability, T/C",[31],83.2%
same,"viability, T/C",[32],82.9%
same,"viability, T/C",[33],86%
same,"viability, T/C",[34],72.4%
same,"viability, T/C","second compound 0.1 µM, first compound 0.949 µM",68.2%
same,"viability, T/C","second compound 0.1 µM, first compound 3 µM",60%
same,"viability, T/C",[35],83.9%
same,"viability, T/C",[36],82.2%
same,"viability, T/C",[37],74.6%
same,"viability, T/C",[38],72.4%
same,"viability, T/C","second compound 0.316 µM, first compound 0.949 µM",71.3%
same,"viability, T/C","second compound 0.316 µM, first compound 3 µM",57.3%
same,"viability, T/C",[39],82.1%
same,"viability, T/C",[40],78.4%
same,"viability, T/C",[41],83.8%
same,"viability, T/C",[42],64.8%
same,"viability, T/C","second compound 1 µM, first compound 0.949 µM",59.4%
same,"viability, T/C","second compound 1 µM, first compound 3 µM",56.3%
same,"viability, T/C",[43],80.6%
same,"viability, T/C",[44],85.1%
same,"viability, T/C",[45],78.1%
same,"viability, T/C",[46],65.7%
same,"viability, T/C","second compound 3.16 µM, first compound 0.949 µM",63.7%
same,"viability, T/C","second compound 3.16 µM, first compound 3 µM",56.2%
same,"viability, T/C",[47],66.9%
same,"viability, T/C",[48],66.8%
same,"viability, T/C",[49],64.8%
same,"viability, T/C",[50],51.8%
same,"viability, T/C","second compound 10 µM, first compound 0.949 µM",58.7%
same,"viability, T/C","second compound 10 µM, first compound 3 µM",58.2%
Nc1ncn(C2CC(O)C(CO)S2)c(=O)n1 (stereo not given) + NC1CC1c1ccc(-c2cccc(O)c2)cc1,IC50,second compound 0.1 µM,> 0.3 µM
same,IC50,second compound 0.316 µM,> 0.3 µM
same,IC50,second compound 1 µM,> 0.3 µM
same,IC50,second compound 3.16 µM,> 0.3 µM
same,IC50,second compound 10 µM,> 0.3 µM
same,"viability, T/C","second compound 0.1 µM, first compound 0.000949 µM",90.1%
same,"viability, T/C","second compound 0.1 µM, first compound 0.003 µM",91.7%
same,"viability, T/C",[31],82%
same,"viability, T/C",[32],76.2%
same,"viability, T/C",[33],82%
same,"viability, T/C",[34],63%
same,"viability, T/C","second compound 0.316 µM, first compound 0.000949 µM",79.2%
same,"viability, T/C","second compound 0.316 µM, first compound 0.003 µM",83.6%
same,"viability, T/C",[35],86.3%
same,"viability, T/C",[36],67.9%
same,"viability, T/C",[37],53.5%
same,"viability, T/C",[38],57.8%
same,"viability, T/C","second compound 1 µM, first compound 0.000949 µM",85.3%
same,"viability, T/C","second compound 1 µM, first compound 0.003 µM",73.3%
same,"viability, T/C",[39],75.6%
same,"viability, T/C",[40],65.3%
same,"viability, T/C",[41],64.4%
same,"viability, T/C",[42],67.5%
same,"viability, T/C","second compound 3.16 µM, first compound 0.000949 µM",70.5%
same,"viability, T/C","second compound 3.16 µM, first compound 0.003 µM",79.4%
same,"viability, T/C",[43],79.1%
same,"viability, T/C",[44],62.3%
same,"viability, T/C",[45],60.8%
same,"viability, T/C",[46],58.8%
same,"viability, T/C","second compound 10 µM, first compound 0.000949 µM",66.4%
same,"viability, T/C","second compound 10 µM, first compound 0.003 µM",65.1%
same,"viability, T/C",[47],60.9%
same,"viability, T/C",[48],66.5%
same,"viability, T/C",[49],62.7%
same,"viability, T/C",[50],58.9%
O=C(C=Cn1cnc(-c2cc(C(F)(F)F)cc(C(F)(F)F)c2)n1)NNc1cnccn1 + NC1CC1c1ccc(-c2cccc(O)c2)cc1,IC50,second compound 0.1 µM,0.14 µM
same,IC50,second compound 0.316 µM,0.148 µM
same,IC50,second compound 1 µM,0.0889 µM
same,IC50,second compound 3.16 µM,0.171 µM
same,IC50,second compound 10 µM,0.195 µM
same,"viability, T/C","second compound 0.1 µM, first compound 0.00316 µM",79%
same,"viability, T/C","second compound 0.1 µM, first compound 0.01 µM",70.9%
same,"viability, T/C",[1],66.7%
same,"viability, T/C",[2],49.3%
same,"viability, T/C",[3],45.3%
same,"viability, T/C",[4],21.6%
same,"viability, T/C","second compound 0.316 µM, first compound 0.00316 µM",68.7%
same,"viability, T/C","second compound 0.316 µM, first compound 0.01 µM",74.1%
same,"viability, T/C",[7],64.8%
same,"viability, T/C",[8],51.7%
same,"viability, T/C",[9],42%
same,"viability, T/C",[10],19.4%
same,"viability, T/C","second compound 1 µM, first compound 0.00316 µM",73%
same,"viability, T/C","second compound 1 µM, first compound 0.01 µM",64.1%
same,"viability, T/C",[13],69.5%
same,"viability, T/C",[14],41.3%
same,"viability, T/C",[15],39.7%
same,"viability, T/C",[16],23.7%
same,"viability, T/C","second compound 3.16 µM, first compound 0.00316 µM",73.9%
same,"viability, T/C","second compound 3.16 µM, first compound 0.01 µM",77.3%
same,"viability, T/C",[19],76.1%
same,"viability, T/C",[20],53.3%
same,"viability, T/C",[21],43.1%
same,"viability, T/C",[22],23.4%
same,"viability, T/C","second compound 10 µM, first compound 0.00316 µM",71.2%
same,"viability, T/C","second compound 10 µM, first compound 0.01 µM",73.6%
same,"viability, T/C",[25],68.1%
same,"viability, T/C",[26],55.3%
same,"viability, T/C",[27],45.8%
same,"viability, T/C",[28],28%

# From PubChem BioAssay AID1918941 (Molecular Pharmacology Branch, DTP, NCI, 2023)
